In article PMC12735969, “Regulation of NAD^+ Homeostasis by SsNrtR in Streptococcus Sobrinus: A Critical Determinant of Its Cariogenic Potential” (Pathogens, 2025):

Biological target: T1, SsNrtR (Streptococcus sobrinus, UniProt A0ABM6W328)
T1 construct: gene DK182_01300; full-length, hexahistidine tag, pET28b-nrtR, E. coli BL21(DE3), Ni-NTA and Superdex 200; about 28 kDa; dimer and oligomers
Assay: EMSA, release from pnuC/pncB promoter DNA
Assay type: binding
Settings: ADPR 0-1.0 mM; 200 bp pnuC/pncB promoter probe; allosteric anti-repressor

Compound: Nc1ncnc2c1ncn2[C@@H]1O[C@H](COP(=O)(O)OP(=O)(O)OC[C@H]2OC(O)[C@H](O)[C@@H]2O)[C@@H](O)[C@H]1O (stereo partly shown) [ADP-ribose]
- EMSA, release from pnuC/pncB promoter DNA: the interaction between SsNrtR and the pnuC/pncB DNA probe was disrupted by ADPR
